# Assays:
# [1] = target: Adenosine receptor A2a (Homo sapiens) (UniProt P29274); assay: Antagonist activity at A2A adenosine receptor (unknown origin)
# [2] = target: Adenosine receptor A2a (Homo sapiens) (UniProt P29274); assay: Binding affinity to A2A adenosine receptor (unknown origin)
# [3] = target: Adenosine receptor A2a (Homo sapiens) (UniProt P29274); assay: Negative allosteric modulation of A2A adenosine receptor (unknown origin)
# [4] = target: Adenosine receptor A2a (Homo sapiens) (UniProt P29274); assay: Positive allosteric modulation of A2A adenosine receptor (unknown origin)
# Adenosine receptor A2a (Homo sapiens), sequence (P29274 whole entry): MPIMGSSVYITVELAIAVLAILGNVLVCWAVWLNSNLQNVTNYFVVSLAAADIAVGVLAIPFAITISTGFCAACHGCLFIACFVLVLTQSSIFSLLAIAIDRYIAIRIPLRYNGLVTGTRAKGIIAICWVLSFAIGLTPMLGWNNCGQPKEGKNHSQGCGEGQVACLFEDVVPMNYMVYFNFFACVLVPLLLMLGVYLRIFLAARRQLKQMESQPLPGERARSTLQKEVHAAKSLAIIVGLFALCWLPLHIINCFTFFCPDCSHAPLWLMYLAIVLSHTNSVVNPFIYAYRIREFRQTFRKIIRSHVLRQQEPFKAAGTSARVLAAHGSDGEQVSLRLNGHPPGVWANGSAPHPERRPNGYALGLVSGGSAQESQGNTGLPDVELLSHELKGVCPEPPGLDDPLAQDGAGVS
structure (smiles),measurement,setting,value
Nc1nnc(-c2cc(C(F)(F)F)nc(C(F)(F)F)c2)c(-c2ccccc2)n1,Activity,[1],30 nM
Nc1nc(-c2ccc(F)cc2)ns1,Activity,[2],70 nM
Oc1cccc(Nc2ccccc2)c1,Activity,[3],2 mM
Cc1cc(C)nc(NC(=N)NCCc2c[nH]c3ccc(F)cc23)n1,Activity,[1],200 nM
O=C(O)CCN1CCCc2ccccc21,Activity,[4],2 mM

# From ChEMBL document CHEMBL2346579, “Structure-based approaches to ligands for G-protein-coupled adenosine and P2Y receptors, from small molecules to nanoconjugates” (J Med Chem, 2013)
